# Source: patent US20080153896A1, “Polymorphic Forms of an HMG-CoA Reductase Inhibitor and Uses Thereof” (priority 2006, published 2008)
# Test: Stability (integrity) testing of amorphous and polymorphic form under storage conditions, RP-HPLC
# Assay type: physicochemical
# Parameters: key to Impurity RRT 0.738 / Impurity RRT 0.949 / Impurity RRT 1.050 / Impurity RRT 1.550 / Impurity RRT 0.136 / Impurity RRT 0.720 / Impurity RRT 0.706 / Impurity RRT 1.18 / Impurity RRT 1.826: % of total UV absorption (HPLC peak area)
# Summary of the method: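 Amorphous form and three batches of polymorphic Form I of the hemi calcium salt were stored under different atmospheric conditions. Purity measured by RP-HPLC on C18 with UV detection, drug as percent of total absorption; total impurity from summed impurity peak areas, impurities identified by relative retention time.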
# [1] = 25° C./60% RH 12M, hemi calcium salt
# [2] = 30° C./65% RH 1M, hemi calcium salt
# [3] = 30° C./65% RH 2M, hemi calcium salt
# [4] = 30° C./65% RH 3M, hemi calcium salt
# [5] = 30° C./65% RH 6M, hemi calcium salt
# [6] = 30° C./65% RH 9M, hemi calcium salt
# [7] = 30° C./65% RH 12M, hemi calcium salt
# [8] = 40° C./75% RH 1M, hemi calcium salt
# [9] = 40° C./75% RH 2M, hemi calcium salt
# [10] = 40° C./75% RH 3M, hemi calcium salt
# [11] = 40° C./75% RH 6M, hemi calcium salt
# [12] = Initial, listed as Batch 1 of Polymorphic Form I, hemi calcium salt
smiles,measurement,setting,value
"CC(C)c1c(C(=O)Nc2ccc(CO)cc2)c(-c2ccccc2)c(-c2ccc(F)cc2)n1CC[C@@H](O)C[C@@H](O)CC(=O)[O-].CC(C)c1c(C(=O)Nc2ccc(CO)cc2)c(-c2ccccc2)c(-c2ccc(F)cc2)n1CC[C@@H](O)C[C@@H](O)CC(=O)[O-].[Ca+2] [PP00405, (3R, 5R)-7-[2-(4-fluorophenyl)-5-isopropyl-3-phenyl-4-[(4-hydroxymethylphenylamino)carbonyl]-pyrrol-1-yl]-3,5-dihydroxy-heptanoic acid, hemi calcium salt]",Highest Impurity,[1],0.412
same,Impurity RRT 0.935,[1],0.412
same,Impurity RRT 1.045,[1],0.396
same,Impurity RRT 1.640,[1],0.051
same,Total Impurity,[1],1.318
same,Water,[1],5.47 % W/W
same,Description,30° C./65% RH 1M,White
same,Impurity RRT 1.094,30° C./65% RH 1M,0.149
same,Impurity RRT 1.437,30° C./65% RH 1M,0.161
same,Impurity RRT 1.593,30° C./65% RH 1M,0.061
same,Impurity RRT 1.694,30° C./65% RH 1M,0.060
same,Water,30° C./65% RH 1M,4.16 % W/W
same,Assay,[2],98.25 % W/W
same,Highest Impurity,[2],0.370
same,Impurity RRT 0.935,[2],0.370
same,Impurity RRT 1.045,[2],0.300
same,Impurity RRT 1.64,[2],0.047
same,Total Impurity,[2],1.228
same,Description,30° C./65% RH 2M,White
same,Impurity RRT 1.094,30° C./65% RH 2M,0.16
same,Impurity RRT 1.180,30° C./65% RH 2M,0.044
same,Impurity RRT 1.437,30° C./65% RH 2M,0.163
same,Impurity RRT 1.593,30° C./65% RH 2M,0.080
same,Impurity RRT 1.694,30° C./65% RH 2M,0.062
same,Assay,[3],98.23 % W/W
same,Highest Impurity,[3],0.390
same,Impurity RRT 0.935,[3],0.390
same,Impurity RRT 1.045,[3],0.374
same,Impurity RRT 1.64,[3],0.044
same,Total Impurity,[3],1.320
same,Water,[3],3.85 % W/W
same,Description,30° C./65% RH 3M,White
same,Impurity RRT 1.094,30° C./65% RH 3M,0.167
same,Impurity RRT 1.437,30° C./65% RH 3M,0.168
same,Impurity RRT 1.593,30° C./65% RH 3M,0.081
same,Impurity RRT 1.694,30° C./65% RH 3M,0.066
same,Assay,[4],98.15 % W/W
same,Highest Impurity,[4],0.416
same,Impurity RRT 0.935,[4],0.416
same,Impurity RRT 1.045,[4],0.405
same,Impurity RRT 1.64,[4],0.048
same,Total Impurity,[4],1.350
same,Water,[4],4.73 % W/W
same,Description,30° C./65% RH 6M,White
same,Impurity RRT 0.136,30° C./65% RH 6M,0.049
same,Impurity RRT 1.094,30° C./65% RH 6M,0.140
same,Impurity RRT 1.437,30° C./65% RH 6M,0.150
same,Impurity RRT 1.593,30° C./65% RH 6M,0.077
same,Impurity RRT 1.694,30° C./65% RH 6M,0.044
same,Assay,[5],98.08 % W/W
same,Highest Impurity,[5],0.361
same,Impurity RRT 0.935,[5],0.355
same,Impurity RRT 1.045,[5],0.361
same,Impurity RRT 1.640,[5],0.042
same,Total Impurity,[5],1.218
same,Water,[5],5.62 % W/W
same,Description,30° C./65% RH 9M,White
same,Impurity RRT 0.136,30° C./65% RH 9M,0.056
same,Impurity RRT 1.094,30° C./65% RH 9M,0.134
same,Impurity RRT 1.437,30° C./65% RH 9M,0.147
same,Impurity RRT 1.593,30° C./65% RH 9M,0.080
same,Impurity RRT 1.694,30° C./65% RH 9M,0.051
same,Assay,[6],98.15 % W/W
same,Highest Impurity,[6],0.387
same,Impurity RRT 0.935,[6],0.387
same,Impurity RRT 1.045,[6],0.351
same,Impurity RRT 1.640,[6],0.033
same,Total Impurity,[6],1.239
same,Water,[6],5.55 % W/W
same,Impurity RRT 0.136,30° C./65% RH 12M,0.240
same,Impurity RRT 1.094,30° C./65% RH 12M,0.120
same,Impurity RRT 1.437,30° C./65% RH 12M,0.148
same,Impurity RRT 1.593,30° C./65% RH 12M,0.075
same,Impurity RRT 1.694,30° C./65% RH 12M,0.055
same,Assay,[7],98.09 % W/W
same,Highest Impurity,[7],0.375
same,Impurity RRT 0.935,[7],0.375
same,Impurity RRT 1.045,[7],0.372
same,Impurity RRT 1.640,[7],0.044
same,Total Impurity,[7],1.492
same,Water,[7],5.91 % W/W
same,Description,40° C./75% RH 1M,White
same,Impurity RRT 1.094,40° C./75% RH 1M,0.167
same,Impurity RRT 1.437,40° C./75% RH 1M,0.155
same,Impurity RRT 1.593,40° C./75% RH 1M,0.085
same,Impurity RRT 1.694,40° C./75% RH 1M,0.071
same,Assay,[8],98.22 % W/W
same,Highest Impurity,[8],0.405
same,Impurity RRT 0.935,[8],0.405
same,Impurity RRT 1.045,[8],0.39
same,Impurity RRT 1.64,[8],0.05
same,Total Impurity,[8],1.323
same,Water,[8],4.52 % W/W
same,Description,40° C./75% RH 2M,White
same,Impurity RRT 1.094,40° C./75% RH 2M,0.164
same,Impurity RRT 1.180,40° C./75% RH 2M,0.049
same,Impurity RRT 1.437,40° C./75% RH 2M,0.169
same,Impurity RRT 1.593,40° C./75% RH 2M,0.082
same,Impurity RRT 1.694,40° C./75% RH 2M,0.067
same,Assay,[9],98.16 % W/W
same,Highest Impurity,[9],0.408
same,Impurity RRT 0.935,[9],0.407
same,Impurity RRT 1.045,[9],0.408
same,Impurity RRT 1.64,[9],0.046
same,Total Impurity,[9],1.39
same,Water,[9],4.63 % W/W
same,Description,40° C./75% RH 3M,White
same,Impurity RRT 1.094,40° C./75% RH 3M,0.162
same,Impurity RRT 1.437,40° C./75% RH 3M,0.167
same,Impurity RRT 1.593,40° C./75% RH 3M,0.094
same,Impurity RRT 1.694,40° C./75% RH 3M,0.056
same,Assay,[10],98.11 % W/W
same,Highest Impurity,[10],0.403
same,Impurity RRT 0.935,[10],0.403
same,Impurity RRT 1.045,[10],0.396
same,Impurity RRT 1.64,[10],0.049
same,Total Impurity,[10],1.330
same,Water,[10],4.64 % W/W
same,Description,40° C./75% RH 6M,White
same,Impurity RRT 1.094,40° C./75% RH 6M,0.146
same,Impurity RRT 1.437,40° C./75% RH 6M,0.151
same,Impurity RRT 1.593,40° C./75% RH 6M,0.098
same,Impurity RRT 1.694,40° C./75% RH 6M,0.074
same,Assay,[11],98.22 % W/W
same,Highest Impurity,[11],0.391
same,Impurity RRT 0.935,[11],0.391
same,Impurity RRT 1.045,[11],0.351
same,Impurity RRT 1.640,[11],0.031
same,Total Impurity,[11],1.242
same,Water,[11],5.55 % W/W
same,Description,Initial,White
same,Impurity RRT 0.720,Initial,0.046
same,Impurity RRT 1.094,Initial,0.142
same,Impurity RRT 1.437,Initial,0.162
same,Impurity RRT 1.593,Initial,0.079
same,Impurity RRT 1.694,Initial,0.068
same,Assay,[12],98.48 % W/W
same,Highest Impurity,[12],0.411
same,Impurity RRT 1.045,[12],0.385
same,Impurity RRT 1.64,[12],0.046
same,Total Impurity,[12],1.340
same,Water,[12],4.55 % W/W
